Data published in patent US20030109523A1, “Bicyclic antagonists selective for the alphavbeta3 integrin” (Wyeth, priority 1999, published 2003).
Marks after values point to notes of the source that are not given here.

Tests used:
[1] = biological target: T1, Vitronectin Receptor (αVβ3) (Homo sapiens, UniProt P05106+P06756); assay: Vitronectin Receptor (αVβ3) Binding Test Procedure; details: for remaining activity at 30 µM: % Max = percentage of the specific binding, read-out: (αVβ3) RECEPTOR BINDING, % @ concentration; for IC50: read-out: (αVβ3) IC50 RECEPTOR BINDING
T1 construct: expressed in transfected cells; host or cells: 512P5 cells (plasma membrane preparation)
T1 sequence (P06756 31-889 limits assumed): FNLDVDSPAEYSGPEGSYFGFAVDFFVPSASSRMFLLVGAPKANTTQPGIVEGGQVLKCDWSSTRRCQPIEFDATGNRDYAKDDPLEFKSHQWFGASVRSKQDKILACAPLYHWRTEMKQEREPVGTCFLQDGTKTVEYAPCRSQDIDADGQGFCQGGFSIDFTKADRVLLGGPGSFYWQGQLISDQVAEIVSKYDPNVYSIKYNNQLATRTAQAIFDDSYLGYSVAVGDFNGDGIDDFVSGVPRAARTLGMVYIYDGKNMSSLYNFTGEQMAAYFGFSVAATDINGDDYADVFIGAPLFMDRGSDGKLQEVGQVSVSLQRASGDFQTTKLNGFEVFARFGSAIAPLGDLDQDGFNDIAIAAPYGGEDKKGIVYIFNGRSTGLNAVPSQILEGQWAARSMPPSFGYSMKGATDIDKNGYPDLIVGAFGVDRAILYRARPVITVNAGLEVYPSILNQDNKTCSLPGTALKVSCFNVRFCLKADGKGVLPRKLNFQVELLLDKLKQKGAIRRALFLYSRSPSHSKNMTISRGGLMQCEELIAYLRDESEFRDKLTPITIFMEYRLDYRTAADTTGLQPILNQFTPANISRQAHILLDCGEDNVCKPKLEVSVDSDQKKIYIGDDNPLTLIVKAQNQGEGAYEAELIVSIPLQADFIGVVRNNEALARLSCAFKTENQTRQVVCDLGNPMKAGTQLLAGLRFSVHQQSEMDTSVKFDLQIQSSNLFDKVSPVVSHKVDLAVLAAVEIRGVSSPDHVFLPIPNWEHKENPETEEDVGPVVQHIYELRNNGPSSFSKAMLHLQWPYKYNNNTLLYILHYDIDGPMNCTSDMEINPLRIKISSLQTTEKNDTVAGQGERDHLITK
T1 sequence (P06756 891-1048 partner limits assumed): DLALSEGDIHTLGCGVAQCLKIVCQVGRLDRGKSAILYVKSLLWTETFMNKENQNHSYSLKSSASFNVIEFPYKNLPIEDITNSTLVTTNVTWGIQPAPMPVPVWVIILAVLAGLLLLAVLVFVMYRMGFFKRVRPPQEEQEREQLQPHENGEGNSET
T1 sequence (P05106 27-788): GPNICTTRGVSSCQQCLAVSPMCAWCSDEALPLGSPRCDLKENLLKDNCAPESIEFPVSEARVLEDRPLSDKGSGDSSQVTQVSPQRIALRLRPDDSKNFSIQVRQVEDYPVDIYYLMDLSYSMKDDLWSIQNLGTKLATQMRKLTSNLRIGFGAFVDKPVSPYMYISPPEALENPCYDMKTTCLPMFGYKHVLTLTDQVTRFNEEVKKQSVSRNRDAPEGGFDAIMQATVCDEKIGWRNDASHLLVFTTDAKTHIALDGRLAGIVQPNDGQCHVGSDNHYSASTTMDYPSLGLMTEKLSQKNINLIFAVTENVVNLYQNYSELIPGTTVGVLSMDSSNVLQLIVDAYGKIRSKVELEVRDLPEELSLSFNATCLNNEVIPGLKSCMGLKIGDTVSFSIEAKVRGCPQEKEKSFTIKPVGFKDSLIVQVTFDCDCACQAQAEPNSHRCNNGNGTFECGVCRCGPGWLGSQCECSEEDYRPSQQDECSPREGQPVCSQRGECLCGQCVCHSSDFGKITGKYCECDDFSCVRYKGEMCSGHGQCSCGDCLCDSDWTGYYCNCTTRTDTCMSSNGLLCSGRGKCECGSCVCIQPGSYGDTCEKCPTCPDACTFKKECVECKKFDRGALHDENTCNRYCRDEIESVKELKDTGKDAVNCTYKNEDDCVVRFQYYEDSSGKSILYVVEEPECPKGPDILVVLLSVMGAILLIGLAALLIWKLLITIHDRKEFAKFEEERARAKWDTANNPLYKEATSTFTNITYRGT

osteoclasts = assay: Osteoclast Bone Pitting; type: cell-based, rat
Summary of the method: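 Osteoclasts on bone slices at an acidic pH promoting resorption; slices fixed, osteoclasts counted after TRAP staining, cells stripped by sonication in 0.25M NH4OH and toluidine blue-stained pits counted manually. Block design, three replicate slices per treatment per animal; IC50 from dose-response curves.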

αVβ3 integrin = biological target: T2, αVβ3 integrin (Homo sapiens, UniProt P05106+P06756); assay: Osteopontin-αVβ3 Cell Attachment Test Procedure; type: cell-based; details: for remaining activity at 100 µM / remaining activity at 20 µM: % of maximal attachment, read-out: (αVβ3) CELL ATTACHMENT, % @ concentration; for IC50: attachment of cells to osteopontin, read-out: (αVβ3) IC50 CELL ATTACHMENT
T2 construct: αVβ3-expressing cell lines are maintained by standard tissue culture techniques; endogenous in cells; host or cells: αVβ3-expressing cell lines
T2 sequence (P06756 31-889 limits assumed): as the sequence (P06756 31-889 limits assumed) above
T2 sequence (P06756 891-1048 partner limits assumed): as the sequence (P06756 891-1048 partner limits assumed) above
T2 sequence (P05106 27-788): as the sequence (P05106 27-788) above
Summary of the method: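 Cells expressing αVβ3 (10^6 cells/mL) added with test compound to osteopontin-coated, 1% BSA-blocked wells in triplicate; 1.5 h at 25° C. Attached cells quantified by MTT dye conversion (overnight, 37° C.); optical density expressed as % of maximal attachment minus uncoated-well background, mean ±SD.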

αIIbβ3 integrin = biological target: T3, αIIbβ3 integrin (Homo sapiens, UniProt P05106+P08514); assay: ADP-Induced Platelet Aggregation; type: cell-based; details: Table VII; for IC50: ADP 20 uM, human platelets, read-out: Platelet Aggregation αIIbβ3 IC50
T3 construct: Human Platelets: Platelet-enriched plasma was obtained commercially from a donor pool; from tissue; host or cells: human platelet-rich plasma from a commercial donor pool
T3 sequence (P08514 32-887 limits assumed): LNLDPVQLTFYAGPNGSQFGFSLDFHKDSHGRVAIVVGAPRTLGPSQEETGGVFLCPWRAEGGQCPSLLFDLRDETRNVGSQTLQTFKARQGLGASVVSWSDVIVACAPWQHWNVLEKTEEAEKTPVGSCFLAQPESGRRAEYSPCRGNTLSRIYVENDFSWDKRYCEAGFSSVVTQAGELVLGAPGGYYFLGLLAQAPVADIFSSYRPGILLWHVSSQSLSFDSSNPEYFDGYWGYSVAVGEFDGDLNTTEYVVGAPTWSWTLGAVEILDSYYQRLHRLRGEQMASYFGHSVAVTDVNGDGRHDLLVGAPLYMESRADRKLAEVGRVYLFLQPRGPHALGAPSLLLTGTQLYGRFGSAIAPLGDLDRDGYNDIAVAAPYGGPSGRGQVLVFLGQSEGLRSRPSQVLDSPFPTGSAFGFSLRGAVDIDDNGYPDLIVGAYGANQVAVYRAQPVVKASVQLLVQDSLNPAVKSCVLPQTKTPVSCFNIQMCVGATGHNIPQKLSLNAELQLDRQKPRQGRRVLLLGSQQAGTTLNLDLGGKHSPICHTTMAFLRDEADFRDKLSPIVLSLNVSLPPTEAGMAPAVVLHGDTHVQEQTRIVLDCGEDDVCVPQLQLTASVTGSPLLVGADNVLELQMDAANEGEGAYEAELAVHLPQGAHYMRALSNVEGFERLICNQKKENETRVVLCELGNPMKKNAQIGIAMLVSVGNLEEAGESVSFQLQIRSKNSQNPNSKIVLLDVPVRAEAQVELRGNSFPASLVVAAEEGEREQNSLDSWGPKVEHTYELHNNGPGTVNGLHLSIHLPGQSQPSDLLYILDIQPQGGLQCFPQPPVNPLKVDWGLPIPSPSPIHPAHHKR
T3 sequence (P08514 891-1039 partner limits assumed): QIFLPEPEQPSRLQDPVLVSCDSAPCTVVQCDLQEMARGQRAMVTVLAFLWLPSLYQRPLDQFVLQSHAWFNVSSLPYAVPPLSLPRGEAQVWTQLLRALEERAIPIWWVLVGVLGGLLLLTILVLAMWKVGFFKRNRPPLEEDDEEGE
T3 sequence (P05106 27-788): as the sequence (P05106 27-788) above
Summary of the method: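 Pooled human PRP ([…]) preincubated with compound (1% vehicle) 5 min at 37° C with stirring, then stimulated with 20 uM ADP. Light transmittance followed 5 min against PPP reference; maximal aggregation expressed as % of vehicle control, mean ± SD.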

[2] = tested on: thyro-parathyroidectomized (TPTX) rats; assay: PTH-induced Hypercalcemia of Thyro-parathyroidectomized Male Rats; type: in vivo, rat; details: for Change in Serum Calcium after 3 hours / Change in Serum Calcium after 6 hours: Table V, TPTX male rats, rPTH(1-34) 0.45 μg/kg/hr, Example 37 100 mg/kg, s.c.
Excerpt: Effects of Test Compounds on PTH-induced Hypercalcemia of Thyro-parathyroidectomized Male Rats. Male thyro-parathyroidectomized (TPTX) rats (Charles River) were randomly assigned to groups of 7 rats/group. […] For evaluation of prophylactic effects of a test drug, another minipump with appropriate concentration of the test drug solution was implanted subcutaneously at a site away from PTH minipump or implanted as a pellet of the test compound away from the PTH minipump. Alternatively, test drugs were administered by oral gavage as a solution or uniform suspension in an appropriate medium depending on the physical properties of the test compound. A group of 7 unimplanted TPTX rats was set aside as a normal control group.

[3] = @200 μM, percent of maximal aggregation

Work on `N=C(N)NCCCCOc1cccc2c1NC(=O)C(CC(=O)O)C2` (stereo not shown) [Example 235, [8-(4-Guanidino-butoxy)-2-oxo-1,2,3,4-tetrahydro-quinolin-3-yl]-acetic Acid] yielded a remaining activity at 30 µM [1] of 100%, an inhibition at 221 µM (osteoclasts; Rattus norvegicus, Osteoclast, @ 221 μM) of -50% and a melting point of 207 to 210 °C. For the same compound, the remaining activity at 100 µM (αVβ3 integrin) was 91% and the remaining activity at 200 µM (αIIbβ3 integrin; [3]) was 81.1%.

In the case of `N=C(N)NCCCOc1ccc2c(c1)CCC(CC(=O)O)C2.O=C(O)C(F)(F)F` (stereo not shown) [Example 37, [6-(3-Guanidino-propoxy)-1,2,3,4-tetrahydro-napthalen-2-yl]-acetic Acid Trifluoroacetate], the IC50 [1] is reported as 2.9 µM, the “BONE PITTING INHIBITION” value (osteoclasts; @ 238 μM) is reported as 30% @ 238 and the IC50 (αVβ3 integrin) is reported as 8.9 µM. For the same compound, the IC50 (αIIbβ3 integrin) was 82.4 µM, the “Change in Serum Calcium after 3 hours” value ([2]; 1st column pair) was 1.72 mg/dL and the “Change in Serum Calcium after 6 hours” value ([2]; 1st column pair) was 2.22 mg/dL. For the same compound, the “Change in Serum Calcium after 3 hours” value ([2]; 2nd column pair) was 0.97 mg/dL, the “Change in Serum Calcium after 6 hours” value ([2]; 2nd column pair) was 2.21 mg/dL and the “Change in Serum Calcium after 3 hours” value ([2]; 3rd column pair) was 0.95 mg/dL. For the same compound, the “Change in Serum Calcium after 6 hours” value ([2]; 3rd column pair) was 1.80 mg/dL, the “Change in Serum Calcium after 3 hours” value ([2]; 4th column pair) was 1.31 mg/dL and the “Change in Serum Calcium after 6 hours” value ([2]; 4th column pair) was 1.63 mg/dL.

Work on `N=C(N)NCCCCOc1ccc2c(c1)CC(CCC(=O)O)C(=O)N2` (stereo not shown) [Example 224, 3-[6-(4-Guanidino-butoxy)-2-oxo-1,2,3,4-tetrahydro-quinolin-3-yl]-propionic Acid] yielded a remaining activity at 30 µM [1] of 100%, an inhibition at 216 µM (osteoclasts; Rattus norvegicus, Osteoclast, @ 216 μM) of -62% and a melting point of 152 to 155 °C. For the same compound, the remaining activity at 20 µM (αVβ3 integrin) was 100% and the IC50 (αIIbβ3 integrin) was 53 µM.

In the case of `N=C(N)NCCCOc1ccc2c(c1)N(Cc1ccccc1)C(=O)C(CC(=O)O)C2` (stereo not shown) [Example 172, [1-Benzyl-7-(3-guanidino-propoxy)-2-oxo-1,2,3,4-tetrahydro-quinolin-3-yl]-acetic Acid], the IC50 [1] is reported as 2.7 µM, the inhibition at 190 µM (osteoclasts; Rattus norvegicus, Osteoclast, @ 190 μM) is reported as 15% and the melting point is reported as 172 to 173 °C. It also gave an IC50 (αVβ3 integrin) of 27.3 µM and a remaining activity at 200 µM (αIIbβ3 integrin; [3]) of 71.5%.

With `N=C(N)NCCCCOc1ccc2c(c1)NC(=O)C(CC(=O)O)C2.O=C(O)C(F)(F)F` (stereo not shown) [Example 84, [7-(4-Guanidino-butoxy)-2-oxo-1,2,3,4-tetrahydro-quinolin-3-yl]-acetic Acid Trifluoroacetate] the IC50 [1] was 11.4 µM, the inhibition at 223 µM (osteoclasts; Rattus norvegicus, Osteoclast, @ 223 μM) was 57% and the melting point was 189 to 191 °C. For the same compound, the IC50 (αVβ3 integrin) was 24.5 µM and the remaining activity at 200 µM (αIIbβ3 integrin; [3]) was 62%.

`Cl.N=C(N)NCCCOc1ccc2c(c1)NC(=O)C(CC(=O)O)C2` (stereo not shown) [Example 86, [7-(3-Guanidino-propoxy)-2-oxo-1,2,3,4-tetrahydro-quinolin-3-yl]-acetic Acid Hydrochloride] showed an IC50 [1] of 7.3 µM, an inhibition at 280 µM (osteoclasts; Rattus norvegicus, Osteoclast, @ 280 μM) of 70% and a melting point of 227 to 229 °C. It also gave an IC50 (αVβ3 integrin) of 21.1 µM and a remaining activity at 200 µM (αIIbβ3 integrin; [3]) of 80.9%.

Compound `N=C(N)NCCCOc1ccc2cc(CC(=O)O)c(=O)n(Cc3ccccc3)c2c1.O=C(O)C(F)(F)F` [Example 239, [1-Benzyl-7-(3-guanidino-propoxy)-2-oxo-1,2-dihydro-quinolin-3-yl]-acetic Acid Trifluoroacetic Acid Salt] has a remaining activity at 30 µM [1] of 70%, an inhibition at 19.1 µM (osteoclasts; Rattus norvegicus, Osteoclast, @ 19.1 μM) of 33% and a melting point of 132 to 134 °C. For the same compound, the remaining activity at 20 µM (αVβ3 integrin) was 99.7%, the remaining activity at 100 µM (αVβ3 integrin) was 67.5% and the “Percent of Maximal” value (αIIbβ3 integrin; [3]) was 83.7@200%.

In the case of Cyclo(-Arg-Gly-Asp-D-Phe-Val), the “Change in Serum Calcium (mg/dL)” value ([2]; Table III, TPTX rat, 100 mg/kg.sc) is reported as −0.90 + 0.28 mg/dL, the “Change in Serum Calcium after 3 hours” value ([2]; 1st column pair) is reported as 0.69 mg/dL and the “Change in Serum Calcium after 6 hours” value ([2]; 1st column pair) is reported as 1.20* mg/dl. The “Change in Serum Calcium after 3 hours” value ([2]; 2nd column pair) was 0.58** mg/dl, the “Change in Serum Calcium after 6 hours” value ([2]; 2nd column pair) was 1.44* mg/dl and the “Change in Serum Calcium after 3 hours” value ([2]; 3rd column pair) was 0.01** mg/dl. The “Change in Serum Calcium after 6 hours” value ([2]; 3rd column pair) was 0.63 mg/dL, the “Change in Serum Calcium after 3 hours” value ([2]; 4th column pair) was 0.51** mg/dl and the “Change in Serum Calcium after 6 hours” value ([2]; 4th column pair) was 1.07 mg/dL.
